Experimental findings from PubChem BioAssay AID328 (DTP/NCI, 2004) are described below.

“And” between values parts separate entries of the source, which are not always exact repeats. Identical values can stand only once. Toxic doses and inconclusive results are not listed.

The subject of the experiment is BDF1 mice, P388 leukemia ip, median survival T/C. Briefly: NCI In Vivo Anticancer Drug Screen. Data for tumor model P388 Leukemia (intraperitoneal) in B6D2F1 (BDF1) mice. The following applies: endpoint: median survival time, higher = longer survival. The essentials:
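Vehicle-dosed animals serve as the reference; survival of compound-dosed, tumour-implanted mice is divided by it.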

[1] abbreviates: dose: 100.0 mg/kg/injection, schedule: Q04DX003 (ip), vehicle: Klucel (hydroxypropylcellulose) (HPC).
Setting [2] is: dose: 100.0 mg/kg/injection, schedule: Q04DX003 (ip), vehicle: saline with Tween-80.
Setting [3] is: dose: 200.0 mg/kg/injection, schedule: Q04DX003 (ip), vehicle: saline with Tween-80.
[4] abbreviates: dose: 400.0 mg/kg/injection, schedule: Q04DX003 (ip), vehicle: saline with Tween-80.
Where [5] appears, read: dose: 6.25 mg/kg/injection, schedule: Q04DX003 (ip), vehicle: saline.
[6] abbreviates: dose: 25.0 mg/kg/injection, schedule: Q04DX003 (ip), vehicle: Klucel (hydroxypropylcellulose) (HPC).
[7] abbreviates: dose: 50.0 mg/kg/injection, schedule: Q04DX003 (ip), vehicle: Klucel (hydroxypropylcellulose) (HPC).
The mark [8] stands for this setting: dose: 50.0 mg/kg/injection, schedule: Q04DX003 (ip), vehicle: saline with Tween-80.
Where [9] appears, read: dose: 25.0 mg/kg/injection, schedule: Q01DX009 (ip), vehicle: saline with Tween-80.
[10] abbreviates: dose: 50.0 mg/kg/injection, schedule: Q01DX009 (ip), vehicle: saline with Tween-80.
The mark [11] stands for this setting: dose: 100.0 mg/kg/injection, schedule: Q01DX009 (ip), vehicle: saline with Tween-80.
The mark [12] stands for this setting: dose: 200.0 mg/kg/injection, schedule: Q01DX009 (ip), vehicle: saline with Tween-80.
Setting [13] is: dose: 400.0 mg/kg/injection, schedule: Q01DX009 (ip), vehicle: saline with Tween-80.
Where [14] appears, read: dose: 100.0 mg/kg/injection, schedule: Q01DX009 (ip), vehicle: Klucel (hydroxypropylcellulose) (HPC).
The mark [15] stands for this setting: dose: 200.0 mg/kg/injection, schedule: Q01DX009 (ip), vehicle: Klucel (hydroxypropylcellulose) (HPC).
Where [16] appears, read: dose: 100.0 mg/kg/injection, schedule: Q01DX009 (ip), vehicle: saline.

With `Cc1ccc(S(=O)(=O)c2ccc(Sc3cccc[n+]3[O-])c3no[n+]([O-])c23)cc1`, the T/C was 97 % of control (dose: 15.0 mg/kg/injection, schedule: Q01DX009 (ip), vehicle: saline with Tween-80); 114 % of control (dose: 30.0 mg/kg/injection, schedule: Q01DX009 (ip), vehicle: saline with Tween-80); 90 % of control (dose: 60.0 mg/kg/injection, schedule: Q01DX009 (ip), vehicle: saline with Tween-80).
As to `Cc1ccc(S(=O)(=O)N=S2CCCC2)cc1`, the T/C under setting [1] is 100 % of control; the T/C (dose: 200.0 mg/kg/injection, schedule: Q04DX003 (ip), vehicle: Klucel (hydroxypropylcellulose) (HPC)) was 95 % of control; the T/C (dose: 400.0 mg/kg/injection, schedule: Q04DX003 (ip), vehicle: Klucel (hydroxypropylcellulose) (HPC)) is 100 % of control.
Regarding `COc1ccc(/C(C)=C\C(=O)O)cc1`, the T/C is 100 % of control under setting [2], 100 % of control under setting [3] and 95 % of control under setting [4].
As for `O=C(NO)c1ccc([N+](=O)[O-])cc1`, the T/C is, setting by setting: (dose: 240.0 mg/kg/injection, schedule: Q01DX010 (ip), vehicle: water) 92 % of control; (dose: 270.0 mg/kg/injection, schedule: Q01DX010 (ip), vehicle: water) 90 % of control and 113 % of control; (dose: 360.0 mg/kg/injection, schedule: Q01DX010 (ip), vehicle: water) 123 % of control.
Turning to `C[P+](c1ccc(Cl)cc1)(c1ccc(Cl)cc1)c1ccc(Cl)cc1`, the T/C runs as follows: under setting [5], 100 % of control; (dose: 12.5 mg/kg/injection, schedule: Q04DX003 (ip), vehicle: saline) 104 % of control; (dose: 25.0 mg/kg/injection, schedule: Q04DX003 (ip), vehicle: saline) 109 % of control.
On to `ClCCN(CCCl)CCN1c2ccccc2Sc2ccccc21`, for which the T/C is, setting by setting: (dose: 0.79 mg/kg/injection, schedule: Q01DX009 (ip), vehicle: Klucel (hydroxypropylcellulose) (HPC)) 90 % of control; (dose: 1.1 mg/kg/injection, schedule: Q01DX009 (ip), vehicle: Klucel (hydroxypropylcellulose) (HPC)) 90 % of control; (dose: 2.5 mg/kg/injection, schedule: Q01DX009 (ip), vehicle: saline with Tween-80) 150 % of control; (dose: 4.0 mg/kg/injection, schedule: Q01DX009 (ip), vehicle: Klucel (hydroxypropylcellulose) (HPC)) 170 % of control; (dose: 5.0 mg/kg/injection, schedule: Q01DX009 (ip), vehicle: saline with Tween-80) 186 % of control; (dose: 9.37 mg/kg/injection, schedule: Q01DX009 (ip), vehicle: Klucel (hydroxypropylcellulose) (HPC)) 150 % of control. Also, the T/C reads like this: (dose: 10.0 mg/kg/injection, schedule: Q01DX009 (ip), vehicle: saline with Tween-80) 186 % of control; (dose: 12.5 mg/kg/injection, schedule: Q04DX003 (ip), vehicle: Klucel (hydroxypropylcellulose) (HPC)) 160 % of control; (dose: 17.0 mg/kg/injection, schedule: Q04DX003 (ip), vehicle: Klucel (hydroxypropylcellulose) (HPC)) 166 % of control; (dose: 17.5 mg/kg/injection, schedule: Q04DX003 (ip), vehicle: Klucel (hydroxypropylcellulose) (HPC)) 185 % of control; (dose: 20.0 mg/kg/injection, schedule: Q01DX009 (ip), vehicle: saline with Tween-80) 95 % of control; (dose: 23.0 mg/kg/injection, schedule: Q04DX003 (ip), vehicle: Klucel (hydroxypropylcellulose) (HPC)) 109 % of control. Further, the T/C under setting [6] was 175 % of control and 200 % of control; the T/C (dose: 35.0 mg/kg/injection, schedule: Q04DX003 (ip), vehicle: Klucel (hydroxypropylcellulose) (HPC)) was 109 % of control and 210 % of control; the T/C (dose: 37.0 mg/kg/injection, schedule: Q04DX003 (ip), vehicle: Klucel (hydroxypropylcellulose) (HPC)) is 185 % of control; the T/C (dose: 37.5 mg/kg/injection, schedule: Q01DX009 (ip), vehicle: Klucel (hydroxypropylcellulose) (HPC)) is 170 % of control; the T/C under setting [7] was 109 % of control; the T/C under setting [8] is 104 % of control.
As to `CC1(C)N=C(N)N=C(N)N1c1ccc(OCCCNC(=O)Nc2cccc(S(=O)(=O)F)c2)c(Cl)c1`, the T/C under setting [9] is 177 % of control; the T/C (dose: 25.0 mg/kg/injection, schedule: Q04DX003 (ip), vehicle: saline with Tween-80) is 150 % of control; the T/C under setting [10] is 200 % of control; the T/C under setting [8] was 150 % of control; the T/C (dose: 66.0 mg/kg/injection, schedule: Q01DX009 (ip), vehicle: saline with Tween-80) is 177 % of control; the T/C under setting [11] is 86 % of control and 213 % of control.
`Cc1ccc(S(=O)(=O)Oc2cc(C)ccc2C)cc1`: the T/C is 105 % of control under setting [6]; 95 % of control under setting [7]; 114 % of control under setting [11]; 105 % of control under setting [1]; 109 % of control under setting [12]; 114 % of control under setting [13].
With `CC(=O)Nc1c(Cl)cc2c(c1Cl)Cc1cc([N+](=O)[O-])ccc1-2`, the T/C is 95 % of control under setting [11]; 92 % of control and 95 % of control under setting [2]; 95 % of control under setting [12]; 92 % of control and 95 % of control under setting [3]; 100 % of control under setting [13]; 91 % of control under setting [4].
Consider `COc1cc2c(c(OC)c1OC)CC/C(=C\O)C2=O`, for which the T/C is, setting by setting: (dose: 50.0 mg/kg/injection, schedule: Q01DX009 (ip), vehicle: Klucel (hydroxypropylcellulose) (HPC)) 112 % of control; under setting [14], 114 % of control; under setting [15], 106 % of control.
Take `COCOS(C)(=O)=O`: the T/C (dose: 100.0 mg/kg/injection, schedule: Q04DX003 (ip), vehicle: saline) was 95 % of control and the T/C (dose: 200.0 mg/kg/injection, schedule: Q04DX003 (ip), vehicle: saline) was 120 % of control.
For `CC1=CCC2(C)C(=O)C1CC1=C2CC(C)(C)CC1=O` (stereo unspecified), the T/C reads like this: under setting [16], 100 % of control; (dose: 400.0 mg/kg/injection, schedule: Q01DX009 (ip), vehicle: saline) 100 % of control.
Consider `CCCCCCCCCCCC[n+]1ccc2ccccc2c1`, for which the T/C (dose: 1.0 mg/kg/injection, schedule: Q01DX010 (ip), vehicle: saline) was 115 % of control.
As to `O=C(O)/C(Cl)=C(Cl)\C=N\Nc1ccccc1`, the T/C (dose: 200.0 mg/kg/injection, schedule: Q04DX002 (ip), vehicle: saline with Tween-80) is 98 % of control.
In the case of `O=[N+]([O-])C(CO)(CO)CC(F)(F)F`, the T/C runs as follows: (dose: 3.13 mg/kg/injection, schedule: Q01DX009 (ip), vehicle: saline) 100 % of control; (dose: 3.13 mg/kg/injection, schedule: Q04DX003 (ip), vehicle: saline) 100 % of control; (dose: 6.25 mg/kg/injection, schedule: Q01DX009 (ip), vehicle: saline) 104 % of control; under setting [5], 100 % of control; (dose: 12.5 mg/kg/injection, schedule: Q01DX009 (ip), vehicle: saline) 90 % of control.
Turning to `COc1ccc2c(c1)C1(C)CCN(C)CC(C1)C2O` (stereo unspecified), the T/C (dose: 50.0 mg/kg/injection, schedule: Q01DX009 (ip), vehicle: saline) is 96 % of control; the T/C under setting [16] was 89 % of control; the T/C (dose: 200.0 mg/kg/injection, schedule: Q01DX009 (ip), vehicle: saline) was 92 % of control.
In the case of `CCOC(=O)C1(C)C=C(Nc2ccc(OC)cc2)C(=O)N1c1ccc(OC)cc1` (stereo unspecified), the T/C by setting is: (dose: 6.25 mg/kg/injection, schedule: Q01DX009 (ip), vehicle: saline with Tween-80) 104 % of control; (dose: 12.5 mg/kg/injection, schedule: Q01DX009 (ip), vehicle: saline with Tween-80) 100 % of control; under setting [9], 100 % of control; under setting [10], 95 % of control.
Take `O=[N+]([O-])c1ccc2[nH]c3c(c2c1)CSCC3`: the T/C is 100 % of control under setting [10]; 100 % of control under setting [14]; 96 % of control under setting [11]; 109 % of control under setting [2]; 90 % of control under setting [15]; 107 % of control under setting [3]. Besides, the T/C is 86 % of control (dose: 400.0 mg/kg/injection, schedule: Q01DX009 (ip), vehicle: Klucel (hydroxypropylcellulose) (HPC)); 91 % of control under setting [13]; 110 % of control under setting [4].
